This is an account of results in US20160077107A1, “PERSONALISED MEDICINE” (STICHTING KATHOLIEKE UNIVERSITEIT, priority 2013, published 2016).

The test system of test [1] is IL-1β production by human PBMCs. Description: IL-1β production by human PBMCs stimulated with PRR ligands with or without caspase-1 inhibitor (ELISA). Type of test: cell-based. The note with it: 24 h stimulation, 50 healthy donors. For orientation: In an ELISA, binding on a coated surface is turned into a signal by an enzyme label.
Test [2] deals with IL-1β production of PBMCs from gout patients. The note with it: MSU or C16.0 alone; cited from earlier work.

“Also recorded” adds a separate entry of the source.

Turning to `CC(=O)N[C@H]1C(O)O[C@H](CO)[C@@H](O)[C@@H]1O[C@H](C)C(=O)N[C@@H](C)C(=O)N[C@H](CCC(=O)O)C(N)=O` (mixture of isomers) [MDP, Muramyl dipeptide], the “induction of IL-1β production by human PBMCs” value (“induction of IL-1β production” for short) in test [1] is “strong inducers; also recorded: weak inducer”.
For the compound Pam3cys, in test [1], the “induction of IL-1β production” value is on record as “strong inducers”.
Regarding Flagellin, in test [1], the “induction of IL-1β production” value is on record as “weak inducer”.
Take `CCCCCCCCCCCCCCCC(=O)O` [C16.0, Palmitic acid]: in test [2], the “release of IL-1β by the single component alone” value is “neither does”.
